≈ marks a conversion by molar mass, not a printed value.
Assays:
[1] = system: human acute myeloid leukemia cell strain HL-60; assay: Cytotoxic activity, MTT test on HL-60 cells; type: cell-based; conditions: 72 hr incubation; for IC50: Homo sapiens
Method: Cytostatic activity of TD-1 to 10 was studied in terms of numerical values of cytotoxic activity using human acute myeloid leukemia cell strain HL-60. The test was specifically carried out according to the following procedure.
HL-60 cells precultured in an FBS-containing RPMI 1640 medium were suspended in an FBS-containing RPMI 1640 medium so that the number of HL-60 cells is 4×10^4 per mL. The suspension was dispensed in an amount of […] for each well in a 96-well microplate, followed by preincubation in 5% carbon dioxide gas at 37° C. for 24 hr. Subsequently, EtOH-H2O(1:1) as control, and a solution of each TD compound in EtOH-H2O(1:1) as a sample were added each in an amount of […] to each well. After incubation in 5% carbon dioxide gas at 37° C. for 72 hr, an MTT reagent was added in an amount of […] to each well, and incubation was further carried out for 4 hr. The medium was removed, and MTT formazan thus produced was then dissolved in […] of DMSO. Detection was carried out at a light absorption wavelength of 550 nm with a microplate reader, and the viable cell count based on the control was calculated. IC50 values were calculated from a dose-response curve.

[2] = system: OVCAR-5 ovarian cancer cell line; assay: Human cultured cancer cell panel screening test, OVCAR-5; type: cell-based
Method: (§1) To examine the cytostatic activity of TD-1, a human cultured cancer cell panel screening test was carried out. Specifically, for TD-1, the human cultured cancer cell panel screening test was carried out by measuring 50% cell growth inhibitory concentration (GI50) against 39 types in total of human tumor cells according to the method described in “Gan To Kagaku Ryoho (Cancer and Chemotherapy) (Takao Yamori), 24, 129-135, 1997”.

[3] = system: DU-145 prostatic cancer cell line; assay: Human cultured cancer cell panel screening test, DU-145; type: cell-based
Method: as §1

[4] = system: OVCAR-8 ovarian cancer cell line; assay: Human cultured cancer cell panel screening test, OVCAR-8; type: cell-based
Method: as §1

[5] = system: SK-OV-3 ovarian cancer cell line; assay: Human cultured cancer cell panel screening test, SK-OV-3; type: cell-based
Method: as §1

[6] = system: 39 types in total of human tumor cells; assay: Human cultured cancer cell panel screening test, average over panel; type: cell-based; conditions: 50% cell growth inhibitory concentration, average over 39 human tumor cell types
Method: as §1

[7] = system: OVCAR-4 ovarian cancer cell line; assay: Human cultured cancer cell panel screening test, OVCAR-4; type: cell-based
Method: as §1

[8] = system: PC-3 prostatic cancer cell line; assay: Human cultured cancer cell panel screening test, PC-3; type: cell-based
Method: as §1

[9] = system: OVCAR-3 ovarian cancer cell line; assay: Human cultured cancer cell panel screening test, OVCAR-3; type: cell-based
Method: as §1

P388 mouse leukemia = conditions: mice with P388 mouse leukemia intraperitoneally transplanted; Pal et al. 1976; cited from earlier work

Which IC50 value [1] does the source give for `C=C1C(=O)O[C@@H]2C[C@H](C)[C@@]3(OC)C[C@H](O)[C@@](C)(C[C@@H](OC(=O)C(C)C)[C@@H]12)O3` [TD-3, (1S,3R,4S,6R,7S,8R,10R)-1-hydroxy-3-methoxy-3,10-epoxy-8-isobutyryloxygermacra-11(13)-en-6,12-olide] here?
The IC50 value was “(4.97) μg/mL”.

For `C=C1C(=O)O[C@@H]2C[C@H](C)[C@@]3(OC)CC[C@@](C)(C[C@@H](OC(=O)C(C)C)[C@@H]12)O3` [TD-10, (3R,4S,6R,7S,8R,10S)-3-methoxy-3,10-epoxy-8-isobutyryloxygermacra-11(13)-en-6,12-olide], which IC50 value [1] is on record?
The IC50 value was “(0.78) μg/mL”.

For `C=C1C(=O)O[C@@H]2C=C(C)[C@@]3(OC)C[C@H](O)[C@@](C)(C[C@@H](OC(=O)C(C)C)[C@@H]12)O3` [TD-6, (1 S,3R,6R,7R, 8R,10R)-1-hydroxy-3-methoxy-3,10-epoxy-8-isobutyryloxygermacra-4,11(13)-dien-6,12-olide], which IC50 value [1] is on record?
The IC50 value was “(2.50) μg/mL”.

For `C=C1C(=O)OC2/C=C(/C)C(=O)/C=C/C(C)(O)CC(OC(=O)C(C)C)C12` [TD-2, (6S,7R,8R,10R)-10-hydroxy-3-oxo-8-isobutyryloxygermacra-1,4,11(13)-trien-6,12-olide], which IC50 [1] is on record?
The IC50 was 0.38 µg/mL (≈ 1.09 µM).

Which GI50 [2] does the source give for `C=C1C(=O)O[C@@H]2C=C(C)[C@@]3(OC)C[C@@H](OC)[C@@](C)(C[C@@H](OC(=O)C(C)C)[C@@H]12)O3` [TD-1, (1R,3R,6R,7R,8R,10R)-1,3-dimethoxy-3,10-epoxy-8-isobutyryloxygermacra-4,11(13)-dien-6,12-olide] here?
Its GI50 is 2.9 µM.

And the GI50 [3]?
Its GI50 is 4.2 µM.

And the GI50 [4]?
The GI50 was 3.6 µM.

What about the GI50 [5] of the same compound?
Its GI50 is 4 µM.

What about the IC50 value [1] of the same compound?
The IC50 value was “(0.60) μg/mL”.

And the GI50 [6]?
The GI50 was 6.8 µM.

What about the GI50 [7] of the same compound?
Its GI50 is 5.6 µM.

And the GI50 [8]?
The GI50 was 3.3 µM.

What about the GI50 [9] of the same compound?
The GI50 was 3.3 µM.

With `C=C1C(=O)O[C@H]2/C=C(/C)[C@@]3(O)C=C[C@@](C)(C[C@@H](OC(=O)C(C)C)[C@@H]12)O3` [TD-11, (3R,6R,7R,8R,10R)-3-hydroxy-3,10-epoxy-8-isobutyryloxygermacra-1,4,11(13)-trien-6,12-olide] as the compound, how does the “effect of prolonging the life span of mice” value (P388 mouse leukemia) read?
Its value is “had the effect of prolonging the life span of mice”.

For `C=C1C(=O)O[C@@H]2C[C@H](C)[C@@]3(O)C[C@H](O)[C@@](C)(C[C@@H](OC(=O)C(C)C)[C@@H]12)O3` [TD-7, (1S,3R,4S,6R,7S,8R,10R)-1,3-dihydroxy-3,10-epoxy-8-isobutyryloxygermacra-11(13)-en-6,12-olide], which IC50 value [1] is on record?
The IC50 value was “(3.87) μg/mL”.

For `C=C1C(=O)O[C@@H]2C=C(C)[C@@]3(O)C[C@@H](OC)[C@@](C)(C[C@@H](OC(=O)C(C)C)[C@@H]12)O3` [TD-4, (1R,3R,6R,7R,8R,10R)-3-hydroxy-1-methoxy-3,10-epoxy-8-isobutyryloxygermacra-4,11(13)-dien-6,12-olide], which IC50 value [1] is on record?
The IC50 value was “(0.05) μg/mL”.

For `C=C1C(=O)OC2/C=C(/C)C(O)CC3OC3(C)CC(OC(=O)C(C)C)C12` [TD-8, (1R,3S,6S,7R,8R,10R)-3-hydroxy-1,10-epoxy-8-isobutyrylgermacra-4,11(13)-dien-6,12-olide], which IC50 [1] is on record?
The IC50 was 0.92 µg/mL (≈ 2.63 µM).

For `C=C1C(=O)O[C@@H]2C[C@H](C)[C@@]3(O)CC[C@@](C)(C[C@@H](OC(=O)C(C)C)[C@@H]12)O3` [TD-9, (3R,4S,6R,7S,8R,10S)-3-hydroxy-3,10-epoxy-8-isobutyryloxygermacra-11 (13)-en-6,12-olide], which IC50 value [1] is on record?
The IC50 value was “(2.50) μg/mL”.

— patent publication US7563913B2, “Compound and pharmaceutical composition” (Hiro International Co., Ltd., priority 2003, dated 2009)
